Assay results reported in patent US10899639B2, “Composition and method for inhibiting microbial adhesion on surfaces” (SOLENIS TECHNOLOGIES, L.P., priority 2017, dated 2021).

System: Biofilms grown on stainless steel 316 coupons
Assay: biofilm reduction on stainless steel 316 coupons from CDC Biofilm reactor, viable cell plating
Type: cell-based
Conditions: two hours at 28° C. with shaking
Method: Biofilms were grown on stainless steel 316 coupons in a CDC Biofilm reactor using […] minimal salts growth media for a period of twenty-four hours. […] A control was done with […] media. After the biofilms were grown, each coupon from the rods in the CDC reactor was unscrewed and dropped into a well of the plate. The plate was then incubated for two hours at 28° C. with shaking. Following the incubation, the coupons were removed from the wells and placed into 5 mL of phosphate-buffered saline (PBS) and sonicated for six minutes. Viable cells released into the fluid were then determined by a plating method. The results are recorded as the percent reduction in cell counts relative to the control.

## sodium dodecylbenzene sulfonate [Biosoft D-40]
LAS 40 ppm actives
  percent reduction in cell counts relative to the control: 41.83%
LAS 100 ppm actives
  percent reduction in cell counts relative to the control: 81.58%
